Source: PubChem BioAssay (NCI)
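All cell lines were grown in 96-well plates and treated with compound for 48 hours. Abbreviation: GI50, concentration required for 50% inhibition of growth. At the TGI there is no net growth.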

Legend:
Assay in all cases: NCI-60 cell line screen, 48 h
SK-MEL-5 melanoma = system: SK-MEL-5 melanoma
UACC-257 melanoma = system: UACC-257 melanoma
RPMI-8226 leukemia = system: RPMI-8226 leukemia
COLO 205 colon = system: COLO 205 colon
NCI-H23 lung = system: NCI-H23 lung
RXF 393 renal = system: RXF 393 renal
A549 NSCLC = system: A549 NSCLC
SNB-75 CNS = system: SNB-75 CNS
SK-OV-3 ovarian = system: SK-OV-3 ovarian
MDA-MB-435 = system: MDA-MB-435
SW-620 colon = system: SW-620 colon
CCRF-CEM leukemia = system: CCRF-CEM leukemia
SNB-19 CNS = system: SNB-19 CNS
HOP-62 NSCLC = system: HOP-62 NSCLC
MALME-3M melanoma = system: MALME-3M melanoma
SR leukemia = system: SR leukemia
KM12 colon = system: KM12 colon
HCT-15 colon = system: HCT-15 colon
SK-MEL-28 melanoma = system: SK-MEL-28 melanoma
SF-268 CNS = system: SF-268 CNS
HCC-2998 colon = system: HCC-2998 colon
MCF7 breast = system: MCF7 breast
ACHN renal = system: ACHN renal
CAKI-1 renal = system: CAKI-1 renal
OVCAR-3 ovarian = system: OVCAR-3 ovarian
SK-MEL-2 melanoma = system: SK-MEL-2 melanoma
UO-31 renal = system: UO-31 renal
SF-539 CNS = system: SF-539 CNS
NCI-H226 lung = system: NCI-H226 lung
HS 578T breast = system: HS 578T breast
OVCAR-4 ovarian = system: OVCAR-4 ovarian
T-47D breast = system: T-47D breast
NCI-H460 lung = system: NCI-H460 lung
MDA-MB-231 breast = system: MDA-MB-231 breast
OVCAR-8 ovarian = system: OVCAR-8 ovarian
SN12C renal = system: SN12C renal
DU-145 prostate = system: DU-145 prostate
NCI/ADR-RES ovarian = system: NCI/ADR-RES ovarian
LOX IMVI melanoma = system: LOX IMVI melanoma
BT-549 breast = system: BT-549 breast
786-0 renal = system: 786-0 renal
HCT-116 colon = system: HCT-116 colon
U251 CNS = system: U251 CNS
HL-60(TB) leukemia = system: HL-60(TB) leukemia
MOLT-4 leukemia = system: MOLT-4 leukemia
SF-295 CNS = system: SF-295 CNS
K-562 leukemia = system: K-562 leukemia
OVCAR-5 ovarian = system: OVCAR-5 ovarian
A498 renal = system: A498 renal
HT29 colon = system: HT29 colon
UACC-62 melanoma = system: UACC-62 melanoma
PC-3 prostate = system: PC-3 prostate
IGROV1 ovarian = system: IGROV1 ovarian
M14 melanoma = system: M14 melanoma
NCI-H522 lung = system: NCI-H522 lung
TK-10 renal = system: TK-10 renal

Cn1cc(C2=C(c3cn(CCCO)c4ccccc34)C(=O)NC2=O)c2ccccc21
GI50 (SK-MEL-5 melanoma): 4.2 µM | TGI (SK-MEL-5 melanoma): 10.8 µM | GI50 (UACC-257 melanoma): 8.15 µM | TGI (UACC-257 melanoma): 24.7 µM | GI50 (RPMI-8226 leukemia): 5.97 µM | TGI (RPMI-8226 leukemia): 15 µM | GI50 (COLO 205 colon): 5.39 µM | TGI (COLO 205 colon): 16 µM | GI50 (NCI-H23 lung): 5.37 µM | TGI (NCI-H23 lung): 18 µM | GI50 (RXF 393 renal): 3.87 µM | TGI (RXF 393 renal): 9.56 µM | GI50 (A549 NSCLC): 5.68 µM | TGI (A549 NSCLC): 17.5 µM | GI50 (SNB-75 CNS): 3.11 µM | TGI (SNB-75 CNS): 12.3 µM | GI50 (SK-OV-3 ovarian): 4.29 µM | TGI (SK-OV-3 ovarian): > 22.1 µM | GI50 (MDA-MB-435): 2.34 µM | TGI (MDA-MB-435): > 25 µM | GI50 (SW-620 colon): 7.11 µM | TGI (SW-620 colon): > 25 µM | GI50 (CCRF-CEM leukemia): 3.01 µM | TGI (CCRF-CEM leukemia): 18.2 µM | GI50 (SNB-19 CNS): 9.36 µM | TGI (SNB-19 CNS): > 25 µM | GI50 (HOP-62 NSCLC): 7 µM | TGI (HOP-62 NSCLC): 19.5 µM | GI50 (MALME-3M melanoma): 8.52 µM | TGI (MALME-3M melanoma): 21.3 µM | GI50 (SR leukemia): 2.71 µM | TGI (SR leukemia): > 19.1 µM | GI50 (KM12 colon): 1.77 µM | TGI (KM12 colon): 16.8 µM | GI50 (HCT-15 colon): 3.33 µM | TGI (HCT-15 colon): > 25 µM | GI50 (SK-MEL-28 melanoma): 6.49 µM | TGI (SK-MEL-28 melanoma): 18.8 µM | GI50 (SF-268 CNS): 6.11 µM | TGI (SF-268 CNS): 17.6 µM | GI50 (HCC-2998 colon): 7.83 µM | TGI (HCC-2998 colon): > 25 µM | GI50 (MCF7 breast): 2.66 µM | TGI (MCF7 breast): 17.4 µM | GI50 (ACHN renal): 4.99 µM | TGI (ACHN renal): 19.8 µM | GI50 (CAKI-1 renal): 3.93 µM | TGI (CAKI-1 renal): 16.9 µM | GI50 (OVCAR-3 ovarian): 6 µM | TGI (OVCAR-3 ovarian): > 19.5 µM | GI50 (SK-MEL-2 melanoma): 1.79 µM | TGI (SK-MEL-2 melanoma): 4.72 µM | GI50 (UO-31 renal): 4.04 µM | TGI (UO-31 renal): 14 µM | GI50 (SF-539 CNS): 4.57 µM | TGI (SF-539 CNS): 11.4 µM | GI50 (NCI-H226 lung): 5.05 µM | TGI (NCI-H226 lung): 19.1 µM | GI50 (HS 578T breast): 5.35 µM | TGI (HS 578T breast): 17.3 µM | GI50 (OVCAR-4 ovarian): 4.63 µM | TGI (OVCAR-4 ovarian): > 20.7 µM | GI50 (T-47D breast): 4.94 µM | TGI (T-47D breast): 18.6 µM | GI50 (NCI-H460 lung): 4.9 µM | TGI (NCI-H460 lung): 12.5 µM | GI50 (MDA-MB-231 breast): 9.38 µM | TGI (MDA-MB-231 breast): > 25 µM | GI50 (OVCAR-8 ovarian): 6.4 µM | TGI (OVCAR-8 ovarian): > 21.1 µM | GI50 (SN12C renal): 5.25 µM | TGI (SN12C renal): > 25 µM | GI50 (DU-145 prostate): 6.97 µM | TGI (DU-145 prostate): > 22.5 µM | GI50 (NCI/ADR-RES ovarian): 7.23 µM | TGI (NCI/ADR-RES ovarian): > 22.8 µM | GI50 (LOX IMVI melanoma): 6.12 µM | TGI (LOX IMVI melanoma): > 21.4 µM | GI50 (BT-549 breast): 3.76 µM | TGI (BT-549 breast): 11.5 µM | GI50 (786-0 renal): 7.03 µM | TGI (786-0 renal): > 22.8 µM | GI50 (HCT-116 colon): 4.62 µM | TGI (HCT-116 colon): > 17.7 µM | GI50 (U251 CNS): 6.15 µM | TGI (U251 CNS): 19.3 µM | GI50 (HL-60(TB) leukemia): 6.1 µM | TGI (HL-60(TB) leukemia): 15.3 µM | GI50 (MOLT-4 leukemia): 6.05 µM | TGI (MOLT-4 leukemia): > 20.7 µM | GI50 (SF-295 CNS): 5.11 µM | TGI (SF-295 CNS): > 17 µM | GI50 (K-562 leukemia): 5.61 µM | TGI (K-562 leukemia): > 25 µM | GI50 (OVCAR-5 ovarian): 11.4 µM | TGI (OVCAR-5 ovarian): > 25 µM | GI50 (A498 renal): 5.45 µM | TGI (A498 renal): 13.9 µM | GI50 (HT29 colon): 5.4 µM | TGI (HT29 colon): > 19.3 µM | GI50 (UACC-62 melanoma): 5.56 µM | TGI (UACC-62 melanoma): 12.3 µM | GI50 (PC-3 prostate): 6.8 µM | TGI (PC-3 prostate): 24.6 µM | GI50 (IGROV1 ovarian): 6.04 µM | TGI (IGROV1 ovarian): 16.6 µM | GI50 (M14 melanoma): 7.29 µM | TGI (M14 melanoma): > 25 µM | GI50 (NCI-H522 lung): 3.47 µM | TGI (NCI-H522 lung): 13.2 µM | GI50 (TK-10 renal): 3.96 µM | TGI (TK-10 renal): 13.3 µM
